Test system: carbon tetrachloride-induced hepatic disorders
Test: Effect of inhibiting carbon tetrachloride-induced hepatic disorders
Format: in vivo
Details: male mice of dd strain, mean of 5 mice; for Hepatic Disorder index: 30 mg/kg orally in olive oil 6 hours before carbon tetrachloride 0.05 ml/kg orally, sacrificed 24 hours after, visual score 0 (healthy liver) to 6 (heavy disorder); for p-GPT(K.U.): plasma glutamic-pyruvic transaminase activity, Reitman-Frankel method, 30 mg/kg orally 6 hours before carbon tetrachloride 0.05 ml/kg orally, 24 hours after, values above 2,100 counted as 2,100
Method: Effect of inhibiting carbon tetrachloride-induced hepatic disorders A test compound was dissolved or suspended in olive oil and the resulting solution or suspension was orally administered to male mice (6 week age) of dd strain in a dose of 30 mg/kg. Six hours after the administration, carbon tetrachloride was orally administered to the mice in a dose of 0.05 ml/kg. The mice were sacrificed 24 hours after the administration of carbon tetrachloride. Degree of hepatic disorders was visually examined. On the other hand, blood was collected when they were sacrificed and plasma was obtained by centrifugation. Plasma glutamic-pyruvic transaminase (GPT) activity was determined according to the Reitman-Frankel method and the activity was expressed by Karmen Unit (K.U.). The hepatic disorder index is evaluated as below. [table] Five (5) mice were used in each group and the results are shown by a mean value. Further with respect to GPT activity, no further measurement was conducted with the case showing more than 2,100 units but for brevity, it was calculated as 2,100 units.

SMILES | Hepatic Disorder index | p-GPT(K.U.)
CCC(=O)OC1SC(=C2C(=O)CCCC2=O)SC1N(C)C (centres unmarked) [Compound No. 7] | 0 | 15 K.U.
CCOC(=O)OC1SC(=C2C(=O)CCCC2=O)SC1N(C)C (centres unmarked) [Compound No. 8] | 0 | 18 K.U.
CCN1CCN(C2SC(=C3C(=O)CC(C)(C)CC3=O)SC2OC(C)=O)CC1 (centres unmarked) [Compound No. 19] | 1.0 | 297 K.U.
CC(=O)OC1SC(=C2C(=O)CC(c3ccc(C)cc3)CC2=O)SC1N(C)C (centres unmarked) [Compound No. 30] | 0.5 | 229 K.U.
CC(=O)OC1SC(=C2C(=O)CC(c3ccco3)CC2=O)SC1N1CCN(C)CC1 (centres unmarked) [Compound No. 46] | 0.2 | 205 K.U.
CN(C)C1SC(=C2C(=O)CC(C)(C)CC2=O)SC1O (centres unmarked) [Compound No. 13] | 0.4 | 157 K.U.
Cc1ccc(C2CC(=O)C(=C3SC(O)C(N(C)C)S3)C(=O)C2)o1 (centres unmarked) [Compound No. 47] | 1.6 | 430 K.U.
O=C1CCCC(=O)C1=C1SC(N2CCOCC2)C(N2CCOCC2)S1 (centres unmarked) [Compound No. 2] | 0.5 | 12 K.U.
CN(C)C1SC(=C2C(=O)CCCC2=O)SC1N(C)C (centres unmarked) [Compound No. 1, 2-((4,5-bis(dimethylamino)-1,3-dithiolan)-2-ylidene)-1,3-dioxocyclohexane] | 0.6 | 17 K.U.
CN(C)C1SC(=C2C(=O)CC(C)(C)CC2=O)SC1N(C)C (centres unmarked) [Compound No. 3] | 1.6 | 49 K.U.
